Converted amounts (≈) assume the structure as drawn. Where a SMILES comes first, the peptide text is derived from it. [ ]: non-standard residue; d: D form. The star is where a group is joined. d(aIle) = CC[C@H](C)[C@@H](N)C(=O)O; dDab = NCC[C@@H](N)C(=O)O; Octanoyl = CCCCCCCC(=O)*; Dab = NCC[C@H](N)C(=O)O
Columns and labels:
K. pneumoniae ATCC 13883 = type: cell-based, Klebsiella pneumoniae; details: ATCC 13883, 20 h
Protocol: (§1) All minimum inhibitory concentrations (MICs) were determined according to the Clinical and Standards Laboratory Institute (CLSI) guidelines. In brief, agar plates were inoculated from glycerol stocks and incubated overnight at 35 °C. Peptide DMSO stocks were dispensed into 96-well round-bottom plates using a TECAN D300e dispenser. Colistin sulfate (Sigma-Aldrich) was dissolved in water and serially diluted in a cation-adjusted Mueller Hinton broth (10 μL per well). Final concentrations of the test compounds were 0.06 to 64 μg/mL. Inocula were prepared by direct colony suspension in NaCl at 0.5 MacFarland, which was further diluted 200-fold in cation-adjusted Mueller Hinton broth for a target inoculum of 2 × 10^5 colony forming units (CFUs)/mL. 100 μL portion of the prepared inoculum was added to each well of the prepared plates containing the test compounds. Plates were sealed with parafilm and incubated for 20 h at 35 °C. Images of all plates were recorded, and MIC was assessed visually.

K. pneumoniae 1228586 = type: cell-based, Klebsiella pneumoniae; details: 1228586, 20 h
Protocol: as §1

K. pneumoniae 1227947 = type: cell-based, Klebsiella pneumoniae; details: 1227947, 20 h
Protocol: as §1

S. aureus ATCC 29213 = type: cell-based, Staphylococcus aureus; details: ATCC 29213, 20 h
Protocol: as §1

S. aureus 1126387 = type: cell-based, Staphylococcus aureus; details: 1126387, 20 h
Protocol: as §1

S. aureus UAMS-1625 = type: cell-based, Staphylococcus aureus; details: S. aureus UAMS-1625 (BV18); CLSI broth dilution, cation-adjusted Mueller Hinton broth, 20 h, 35 °C, read visually
Protocol: as §1

E. coli ATCC 25922 = type: cell-based, Escherichia coli; details: ATCC 25922, 20 h
Protocol: as §1

E. coli 1220120 = type: cell-based, Escherichia coli; details: 1220120, 20 h
Protocol: as §1

E. coli 1214245 = type: cell-based, Escherichia coli; details: 1214245, 20 h
Protocol: as §1

Rabbit red blood cells = assay: Hemolysis assay; type: cell-based; details: rabbit red blood cells in PBS, 37 °C, 1 h, absorbance at 405 nm, normalization to the Triton X-100 control; 0.25 to 128 μg/mL tested
Protocol: Peptides, dissolved in DMSO, were dispensed into 96-well round-bottom microplates using a TECAN D300e dispenser and subsequently diluted with 100 μL of PBS. PBS or 2% Triton X-100 was used as negative and positive controls, respectively. Rabbit red blood cells (BioConcept) were diluted in PBS to a final concentration of 2%, and 100 μL was added to each well of the prepared 96-well plates. The final concentration of the test compounds was 0.25 to 128 μg/mL. Plates were incubated at 37 °C for 1 h and afterward subjected to centrifugation at 1000g for 5 min. Then, 30 μL of supernatant was transferred to a new round-bottom plate, and absorbance was measured at 405 nm (TECAN Infinite F200). EC50s were calculated after blank subtraction and normalization to the Triton control.

P. aeruginosa 1226072 = type: cell-based, Pseudomonas aeruginosa; details: 1226072, 20 h
Protocol: as §1

P. aeruginosa PAO1 = type: cell-based, Pseudomonas aeruginosa; details: PAO1, 20 h
Protocol: as §1

P. aeruginosa 1218019 = type: cell-based, Pseudomonas aeruginosa; details: 1218019, 20 h
Protocol: as §1

ATCC 25922 = type: cell-based, Enterococcus faecalis; details: ATCC 25922, 20 h
Protocol: as §1

E. faecalis ATCC 29212 = type: cell-based, Enterococcus faecalis; details: ATCC 29212, 20 h
Protocol: as §1

A. baumannii IHMA 777621 = type: cell-based, Acinetobacter baumannii; details: IHMA 777621, 20 h
Protocol: as §1

A. baumannii ATCC 17978 = type: cell-based, Acinetobacter baumannii; details: ATCC 17978, 20 h
Protocol: as §1

A. baumannii HUMC1 = type: cell-based, Acinetobacter baumannii; details: HUMC1, 20 h
Protocol: as §1

E. faecium ATCC 51559 = type: cell-based, Enterococcus faecium; details: ATCC 51559, 20 h
Protocol: as §1

E. faecium IHMA 890472 = type: cell-based, Enterococcus faecium; details: IHMA 890472, 20 h
Protocol: as §1

HepG2 cells = assay: Cytotoxicity determination (CellTiter-Glo); type: cell-based; details: HepG2, medium without serum, 24 h, normalization to the untreated control, 1 to 128 μg/mL tested
Protocol: HepG2 cells were grown in EMEM (Sigma) supplemented with 2 mM glutamine and 10% fetal bovine serum (Fisher) at 37 °C, 5% CO2. 20′000 cells per well were seeded into clear tissue culture-treated 96-well plates and incubated for 24 h. Peptides, dissolved in DMSO, were dispensed into 96 deep well plates (TECAN D300e dispenser) and diluted to a final concentration of 1 to 128 μg/mL using fresh medium without serum. The next day, the old media were removed from the cells, and 200 μL of the prepared compound dilutions was added per well. Plates were incubated for another 24 h before assessing the cell viability using the CellTiter-Glo kit (Promega) according to the manufacturer’s protocol. IC50s were calculated after normalization to the untreated control.

Compound	MIC (K. pneumoniae ATCC 13883)	MIC (K. pneumoniae 1228586)	MIC (K. pneumoniae 1227947)	MIC (S. aureus ATCC 29213)	MIC (S. aureus 1126387)	MIC (S. aureus UAMS-1625)	MIC (E. coli ATCC 25922)	MIC (E. coli 1220120)	MIC (E. coli 1214245)	Hemolysis EC50 (Rabbit red blood cells)	MIC (P. aeruginosa 1226072)	MIC (P. aeruginosa PAO1)	MIC (P. aeruginosa 1218019)	MIC (ATCC 25922)	MIC (E. faecalis ATCC 29212)	MIC (A. baumannii IHMA 777621)	MIC (A. baumannii ATCC 17978)	MIC (A. baumannii HUMC1)	MIC (E. faecium ATCC 51559)	MIC (E. faecium IHMA 890472)	other results
CCCCCCCC(=O)N[C@@H](C(=O)N[C@H](CCN)C(=O)NCC(=O)N[C@H](CO)C(=O)N[C@H](Cc1c[nH]c2ccccc12)C(=O)N[C@@H](CO)C(=O)N[C@@H](CCN)C(=O)N[C@H](CCN)C(=O)N[C@@H](Cc1c[nH]cn1)C(=O)N[C@@H](CCC(=O)O)C(=O)N[C@H](C(=O)N[C@@H](C(=O)N[C@@H](C)C(=O)O)[C@@H](C)CC)C(C)C)C(C)C [Oct-His9] (Octanoyl-[dV][dDab]G[dS][dW]S[Dab][dDab]HEV[d(aIle)]A-OH)	16 µg/mL (≈ 10.6 µM)	8 µg/mL (≈ 5.3 µM)	32 µg/mL (≈ 21.2 µM)	>64 µg/mL	>64 µg/mL	>64 µg/mL	16 µg/mL (≈ 10.6 µM)	8 µg/mL (≈ 5.3 µM)	16 µg/mL (≈ 10.6 µM)	>128 µg/mL	4 µg/mL (≈ 2.65 µM)	32 µg/mL (≈ 21.2 µM)	2 µg/mL (≈ 1.32 µM)	>64 µg/mL	>64 µg/mL	>64 µg/mL	>64 µg/mL	>64 µg/mL	>64 µg/mL	>64 µg/mL	IC50 on HepG2 w/o FCS (HepG2 cells): >128 µg/mL
CCCCCCCC(=O)N[C@@H](C(=O)N[C@H](CCN)C(=O)NCC(=O)N[C@H](CO)C(=O)N[C@H](Cc1c[nH]c2ccccc12)C(=O)N[C@@H](CO)C(=O)N[C@@H](CCN)C(=O)N[C@H](CCN)C(=O)N[C@H](C(=O)N[C@@H](CCC(=O)O)C(=O)N[C@H](C(=O)N[C@@H](C(=O)N[C@@H](C)C(=O)O)[C@@H](C)CC)C(C)C)[C@@H](C)CC)C(C)C [Oct-Ile9] (Octanoyl-[dV][dDab]G[dS][dW]S[Dab][dDab]IEV[d(aIle)]A-OH)	2 µg/mL (≈ 1.35 µM)	4 µg/mL (≈ 2.69 µM)	4 µg/mL (≈ 2.69 µM)	64 µg/mL (≈ 43 µM)	>64 µg/mL	>64 µg/mL	2 µg/mL (≈ 1.35 µM)	2 µg/mL (≈ 1.35 µM)	2 µg/mL (≈ 1.35 µM)	>128 µg/mL	16 µg/mL (≈ 10.8 µM)	64 µg/mL (≈ 43 µM)	16 µg/mL (≈ 10.8 µM)	64 µg/mL (≈ 43 µM)	64 µg/mL (≈ 43 µM)	16 µg/mL (≈ 10.8 µM)	16 µg/mL (≈ 10.8 µM)	16 µg/mL (≈ 10.8 µM)	64 µg/mL (≈ 43 µM)	32 µg/mL (≈ 21.5 µM)	–

Source: PMC11106739, “Discovery and Derivatization of Tridecaptin Antibiotics with Altered Host Specificity and Enhanced Bioactivity” (ACS Chemical Biology, 2024)
